The values below come from PMC9853328, “Potent Platinum(IV) Prodrugs That Incorporate a Biotin Moiety to Selectively Target Cancer Cells” (Pharmaceutics, 2022).

Molecules are shown by their SMILES. Several values for one entry are separate records, joined by “and”; a condition that tells them apart may be missing. Equal entries are not always repeated. Where two headings read alike, the source gives them in different places.

The subject of data set [1] is SJ-G2 glioblastoma cells. Briefly: MTT in vitro cytotoxicity assay, SJ-G2. Particulars: 72 h drug exposure, n = 3, read-out: GI50 ± SEM, SJ-G2. Format: cell-based. On the procedure:
(§1) The in vitro cytotoxicity assays were undertaken at Calvary Mater Hospital, Waratah, NSW, Australia, following a method previously published in the literature. A stock solution for each compound was prepared in DMSO (30 mM) and stored at −20 °C. The cell lines used in the study include HT29 colon, U87 glioblastoma, MCF-7 breast, A2780 ovarian, H460 lung, A431 skin, Du145 prostate, BE2-C neuroblastoma, SJ-G2 glioblastoma, MIA pancreas, and cisplatin-resistant ADDP ovarian (subclone of A2780) cancer cells, as well as the non-cancerous-derived MCF10A breast cell line. The cancer cell lines were cultured in a humidified atmosphere 5% CO2 at 37 °C and maintained in Dulbecco’s modified Eagle’s medium (Trace Biosciences, Sydney, Australia), supplemented with 10% foetal bovine serum, sodium bicarbonate (10 mM), penicillin (100 IU/mL), streptomycin (100 µg/mL), and glutamine (4 mM). The non-cancerous MCF10A cell line was maintained in DMEM:F12 (1:1) cell culture media, with 5% heat inactivated horse serum, supplemented with penicillin (50 IU/mL), streptomycin (50 µg/mL), glutamine (2 mM), HEPES (20 mM), epidermal growth factor (20 ng/mL), hydrocortisone (500 ng/mL), cholera toxin (100 ng/mL), and insulin (10 µg/mL). Cells were plated in duplicate in medium (100 µL) at a density of 2500–4000 cells per well in 96-well plates. On day 0, (24 h after plating) when the cells were in logarithmic growth, medium (100 μL) with or without the test agent was added to each well. The growth inhibitory effects were evaluated after 72 h drug exposure, using the MTT (3-(4,5-dimethylthiazol-2-yl)-2,5-diphenyltetrazolium bromide) assay, with the absorbance read at 540 nm. An eight-point dose–response curve was produced, which was used to determine the concentration at which growth was inhibited by 50% (GI50). This calculation was based on the difference between the optical density values on day 0 and those at the end of drug exposure. […] Experiments were conducted on three separate occasions and GI50 values were reported as the mean and standard error of the mean.

Data set [2] deals with MIA pancreas cancer cells. In words: MTT in vitro cytotoxicity assay, MIA. Type of data set: cell-based. Particulars: 72 h drug exposure, n = 3, read-out: GI50 ± SEM, MIA. As for the experimental part: as §1
The subject of data set [3] is ADDP (subclone of A2780) versus A2780 ovarian cancer cell lines. In words: Resistance factor, GI50 in ADDP/GI50 in A2780. Type of data set: cell-based.
Data set [4] relates to non-cancerous MCF10A breast cell line. In words: MTT in vitro cytotoxicity assay, MCF10A. Particulars: 72 h drug exposure, n = 3, read-out: GI50 ± SEM, MCF10A. Format: cell-based. On the procedure:
as §1

The nature of data set [5]: Lipophilicity by RP-HPLC (logkw). Format: physicochemical. The conditions noted are these: capacity factor in 100% water. As for the experimental part: HPLC experiments were carried out using an Agilent Technologies (Melbourne, Australia) 1260 Infinity instrument, equipped with a Phenomenex (Sydney, Australia) Onyx^TM Monolithic C18 reverse phase column (100 × 4.6 mm, 130 Å). The mobile phase was made up of 0.06% TFA in water (solvent A) and 0.06% TFA in an acetonitrile:water (9:1) mixture (solvent B). Samples were eluted over a gradient of 0–100% (% B) for 15 min, at a flow rate of 1 mL/min, with a sample injection volume of 10 µL. Eluting peaks were detected using a PDA at 254 nm.
For lipophilicity experiments, RP-HPLC was utilised to determine the logkw of each compound, similarly to what has been previously published for similar complexes. Samples were eluted at various isocratic percentages, ranging from 18–30% solvent B. To determine the dead volume of the column, potassium iodide was used as an external dead volume marker. The retention time of each sample in each isocratic run ( tr ) and the dead volume time ( t0 ) were both substituted in Equation (1) to calculate the capacity factor ( k ). (1) k=tr−t0/t0
Following this, logk was plotted against the percentage of ACN. For each complex, a minimum of four concentrations of ACN were used. This produced a linear graph with the equation in the form:(2) logk=Sφ+logkw where S is the slope, φ is the percentage of ACN, and logkw is the y-intercept, which represents the capacity factor of the compound in 100% water.
It is important to explore the lipophilicity of a drug, as it is widely believed that increased lipophilicity results in greater cellular accumulation. To understand the lipophilicity of 1–4, RP-HPLC was utilised to determine the logkw of each complex. To calculate this, each complex was eluted at different isocratic percentages, whereby the retention time was used in Equation (1) to calculate the capacity factor (k). The percentage of the organic solvent was then plotted against log k for each isocratic percentage, producing a linear equation that allowed for logkw to be deduced using Equation (2) (Figure S38). The logkw value represents the capacity factor of the compound in 100% water and can be used to compare a series of compounds. Since 1–4 comprise the same axially bound ligand, biotin, the lipophilicity was influenced by the groups on the PL. The logkw of each complex is presented in Table 1, with their corresponding PL. The increasing lipophilicity of the complexes followed the order: 1 < 4 < 2 < 3.

Data set [6] concerns A2780 ovarian cancer cells. Briefly: MTT in vitro cytotoxicity assay, A2780. Particulars: 72 h drug exposure, n = 3, read-out: GI50 ± SEM, A2780. Format: cell-based. On the procedure: as §1
For data set [7], the system named is HT29 colon cancer cells. In words: MTT in vitro cytotoxicity assay, HT29. Particulars: for GI50: MTT, 72 h drug exposure, n = 3, read-out: GI50 ± SEM, HT29; for number-fold potency against cisplatin, HT29 colon: ratio of GI50 values, 72 h. Type of data set: cell-based. On the procedure:
as §1

For data set [8], the system named is U87 glioblastoma cells. Briefly: MTT in vitro cytotoxicity assay, U87. Format: cell-based. The conditions noted are these: 72 h drug exposure, n = 3, read-out: GI50 ± SEM, U87. As for the experimental part:
as §1

For data set [9], the system named is cisplatin-resistant ADDP ovarian (subclone of A2780) cancer cells. Briefly: MTT in vitro cytotoxicity assay, ADDP. Type of data set: cell-based. Particulars: 72 h drug exposure, n = 3, read-out: GI50 ± SEM, ADDP. On the procedure: as §1
The subject of data set [10] is Du145 prostate cancer cells. In words: MTT in vitro cytotoxicity assay, Du145. Format: cell-based. Particulars: for GI50: MTT; for number-fold potency against cisplatin, Du145 prostate: ratio of GI50 values. As for the experimental part:
as §1

Data set [11] has as its system BE2-C neuroblastoma cells. Briefly: MTT in vitro cytotoxicity assay, BE2-C. Type of data set: cell-based. The conditions noted are these: 72 h drug exposure, n = 3, read-out: GI50 ± SEM, BE2-C. As for the experimental part: as §1
For data set [12], the system named is A431 skin cancer cells. Briefly: MTT in vitro cytotoxicity assay, A431. Format: cell-based. Particulars: 72 h drug exposure, n = 3, read-out: GI50 ± SEM, A431. On the procedure:
as §1

For data set [13], the system named is MCF-7 breast cancer cells. In words: MTT in vitro cytotoxicity assay, MCF-7. Format: cell-based. The conditions noted are these: for GI50: MTT, 72 h drug exposure, n = 3, read-out: GI50 ± SEM, MCF-7.
The test system of data set [14] is panel of cancer cell lines. Briefly: MTT cytotoxicity averaged across the panel of cancer cell lines. Particulars: for enhanced activity compared to platinum(II) precursor across the cancer cell lines: across all cancer cell lines; for GI50: calculated from the panel of cancer cell lines tested (Table S4). Type of data set: cell-based.
The subject of data set [15] is H460 lung cancer cells. Briefly: MTT in vitro cytotoxicity assay, H460. Format: cell-based. The conditions noted are these: 72 h drug exposure, n = 3, read-out: GI50 ± SEM, H460. On the procedure:
as §1

Data set [16] concerns MCF-7 (breast cancer) cells. Briefly: Cellular platinum uptake by ICP-MS, MCF-7. Format: cell-based. The conditions noted are these: at both 1.0 and 0.1 µM, 4 h. As for the experimental part:
Cellular uptake studies were carried out in MCF-7 (breast cancer) and MCF10A (healthy breast) cell lines. Reported in Table S2 are the numbers of cells per well that were seeded onto 12-well plates for each replicate and cell line. After incubating overnight at 37 °C, the cell culture medium was replaced with fresh media containing the test compounds at concentrations of 1.0 and 0.1 µM. After incubating for 4 h, the medium was removed, the cells were washed with PBS twice, and then incubated with trypsin solution until the cells dissociated from the plate. The harvested cells were then placed into an Eppendorf tube and PBS was added to a volume of 1 mL. Cell numbers were determined using trypan blue staining. Cell pellets were obtained after centrifugation and the cells were dispersed in 50 µL of MilliQ™ water and stored immediately at −20 °C until platinum analysis was conducted. These experiments were repeated in triplicate on three separate occasions.
Sixty-nine percent HNO3 (50 µL) was added to each sample and digested at 80 °C for 1.5 h, before being taken up to 1 mL with H2O. The platinum analysis was conducted using a PerkinElmer (Melbourne, Australia) NexION™ 300X inductively coupled plasma mass spectrometer (ICP-MS). A four-point calibration curve was produced by serial dilution of a certified platinum reference standard. The calibration was linear over the working range (R^2 > 0.9999) and the most abundant platinum isotope (m/z = 195) was monitored. The average values for three independent experiments were reported with standard deviations.

Setting [17] is: 72 h drug exposure, n = 3, read-out: GI50 ± SEM, Du145.

Take `O=C1N[C@H]2[C@H](CS[C@H]2CCCCC(=O)[O][Pt-2]23([OH])([NH2+][C@H]4CCCC[C@@H]4[NH2+]2)[n+]2cccc4ccc5ccc[n+]3c5c42)N1.O=[N+]([O-])[O-].O=[N+]([O-])[O-]` [Complex 1, [Pt(1,10-phenthroline)(1S,2S-diaminocyclohexane)(biotin)(hydroxido)](NO3)2]: the concentration for 50% growth inhibition (GI50) was 290 ± 70 nM in data set [1]; 210 ± 30 nM in data set [2]; 280 ± 40 nM in data set [4]; 250 ± 20 nM in [6]; 170 ± 60 nM in [7]; 970 ± 150 nM in data set [8]. Moreover, the GI50 is 240 ± 10 nM in [9]; 120 ± 40 nM in data set [10] (setting [17]); 1000 ± 100 nM in [11]; 600 ± 110 nM in data set [12]; 850 ± 140 nM in data set [13]; 455 nM in data set [14]. The GI50 in data set [15] is 300 ± 20 nM. Further, the “Resistance factor (RF)” value in data set [3] is 0.96. This molecule returned a logkw in data set [5] of 0.64. Further, the “number-fold potency against cisplatin, HT29 colon” value in [7] stood at 66 fold. In addition, in data set [10] (72 h), the “number-fold potency against cisplatin, Du145 prostate” value (“number-fold potency … Du145 prostate” for short) came to 10 fold. In addition, in data set [14], the “enhanced activity compared to platinum(II) precursor across the cancer cell lines” value was “comparable activity”.

For the molecule `Cc1c(C)c2ccc[n+]3c2c2c1ccc[n+]2[Pt-2]31([OH])([O]C(=O)CCCC[C@@H]2SC[C@@H]3NC(=O)N[C@@H]32)[NH2+][C@H]2CCCC[C@@H]2[NH2+]1.O=[N+]([O-])[O-].O=[N+]([O-])[O-]` [Complex 2, [Pt(5,6-dimethyl-1,10-phenanthroline)(1S,2S-diaminocyclohexane)(biotin)(hydroxido)](NO3)2], the GI50 in data set [1] is 36 ± 10 nM; in [2], 10 ± 2 nM; in [4], 14 ± 4 nM; in [6], 20 ± 4 nM; in data set [7] it was 11 ± 5 nM; in data set [8] it was 32 ± 8 nM. Also, the GI50 in data set [9] is 11 ± 4 nM; in data set [10] (72 h, read-out: GI50, Du145 prostate cancer cell line), 4 nM; in data set [11] it was 100 ± 10 nM; in data set [12], 36 ± 6 nM; in data set [13], 22 ± 8 nM; in [14], 27 nM. For the same molecule, the GI50 in data set [15] was determined as 18 ± 4 nM. Also, the “Resistance factor (RF)” value in data set [3] turned out to be 0.55. The logkw in data set [5] was found to be 0.78. For the same molecule, the “number-fold potency … Du145 prostate” value in data set [10] (72 h) was determined as 300 fold. For the same molecule, in data set [14], the “enhanced activity compared to platinum(II) precursor across the cancer cell lines” value is listed as ~ 2 fold.

Take `Cc1cc2ccc[n+]3c2c2c1ccc[n+]2[Pt-2]31([OH])([O]C(=O)CCCC[C@@H]2SC[C@@H]3NC(=O)N[C@@H]32)[NH2+][C@H]2CCCC[C@@H]2[NH2+]1.O=[N+]([O-])[O-].O=[N+]([O-])[O-]` [Complex 4, [Pt(5-methyl-1,10-phenanthroline)(1S,2S-diaminocyclohexane)(biotin)(hydroxido)](NO3)2]: the “fold lower uptake in MCF-7 than its platinum(II) precursor” value in data set [16] is recorded as ~ 2 fold. Besides, the 50% growth inhibitory concentration (GI50) in data set [1] amounted to 100 ± 30 nM; in data set [2], 20 ± 4 nM; in data set [4], 31 ± 9 nM; in data set [6], 34 ± 5 nM; in [7], 28 ± 9 nM; in [8] it was 110 ± 30 nM. The GI50 was 29 ± 5 nM in data set [9]; 9 ± 4 nM in data set [10] (setting [17]); 100 ± 20 nM in [11]; 110 ± 20 nM in data set [12]; 33 ± 4 nM in [13]; 55 nM in [14]. The GI50 in data set [15] amounted to 32 ± 10 nM. Besides, in data set [3], the “Resistance factor (RF)” value was 0.853 and 0.85. In [5], this molecule had a logkw of 0.74. Moreover, in data set [7], the “number-fold potency against cisplatin, HT29 colon” value is listed as 404 fold. The “number-fold potency … Du145 prostate” value in data set [10] (72 h) is given as 133 fold. In addition, the “fold more active than its platinum(II) precursor in MCF-7” value in [13] (ratio of GI50 values) is 6 fold. In addition, in data set [14], the “enhanced activity compared to platinum(II) precursor across the cancer cell lines” value is ~ 2.3 fold.

By GI50 is commonly meant the concentration at which growth is held to half of that of the control.
